Laboratory results from the NIST ThermoML archive (doi:10.1021/acs.jced.8b01120).
Several values for one entry are separate records, joined by “and”; a condition that tells them apart may be missing. Identical values can stand only once. Numbers after ± are expanded uncertainties.

Legend:
[1] = 100 kPa, Liquid; for speed of sound: Single path-length method; for mass density: Vibrating tube method
[2] = xn = mol fraction of the nth substance listed; settings: 100 kPa, Liquid; for speed of sound: Single path-length method; for mass density: Vibrating tube method

Structure (SMILES)	speed of sound ([1]; 293.15 K)	mass density ([1]; 293.15 K)	speed of sound ([1]; 298.15 K)	mass density ([1]; 298.15 K)	speed of sound ([1]; 303.15 K)	mass density ([1]; 303.15 K)	speed of sound ([1]; 308.15 K)	mass density ([1]; 308.15 K)	speed of sound ([1]; 313.15 K)	mass density ([1]; 313.15 K)	speed of sound ([2]; 293.15 K, x2 = 0)	mass density ([2]; 293.15 K, x2 = 0)	speed of sound ([2]; 298.15 K, x2 = 0)	mass density ([2]; 298.15 K, x2 = 0)	speed of sound ([2]; 303.15 K, x2 = 0)	mass density ([2]; 303.15 K, x2 = 0)	speed of sound ([2]; 308.15 K, x2 = 0)	mass density ([2]; 308.15 K, x2 = 0)	speed of sound ([2]; 313.15 K, x2 = 0)	mass density ([2]; 313.15 K, x2 = 0)	other results
CCCCOC(C)=O [butyl ethanoate]	1211.6 ± 4 m/s	881.54 ± 2 kg/m3	1191.5 ± 4 m/s	876.399 ± 2 kg/m3	1172.4 ± 4 m/s	871.235 ± 2 kg/m3	1153.9 ± 4 m/s	866.05 ± 2 kg/m3	1131.5 ± 4 m/s	860.84 ± 2 kg/m3											
CCCCOC(C)=O [butyl ethanoate] + CCCCN(CCCC)CCCC											1211.6 ± 4 m/s	881.54 ± 2 kg/m3	1191.5 ± 4 m/s	876.399 ± 2 kg/m3	1172.4 ± 4 m/s	871.235 ± 2 kg/m3	1153.9 ± 4 m/s	866.05 ± 2 kg/m3	1131.5 ± 4 m/s	860.84 ± 2 kg/m3	
CCOC(C)=O [ethyl acetate]	1164.3 ± 4 m/s	900.882 ± 2 kg/m3	1142.9 ± 4 m/s	894.79 ± 2 kg/m3	1119.4 ± 4 m/s	888.656 ± 2 kg/m3	1097.2 ± 4 m/s	882.475 ± 2 kg/m3	1075 ± 4 m/s	876.247 ± 2 kg/m3											
CCOC(C)=O [ethyl acetate] + CCCCN(CCCC)CCCC											1164.3 ± 4 m/s	900.882 ± 2 kg/m3	1142.9 ± 4 m/s	894.79 ± 2 kg/m3	1119.4 ± 4 m/s	888.656 ± 2 kg/m3	1097.2 ± 4 m/s	882.475 ± 2 kg/m3	1075 ± 4 m/s	876.247 ± 2 kg/m3	
COC(C)=O [methyl ethanoate]	1180.4 ± 4 m/s	935.01 ± 2 kg/m3	1157.5 ± 4 m/s	928.458 ± 2 kg/m3	1134.9 ± 4 m/s	921.85 ± 2 kg/m3	1109.2 ± 4 m/s	915.16 ± 2 kg/m3	1089.6 ± 4 m/s	908.49 ± 2 kg/m3											
COC(C)=O [methyl ethanoate] + CCCCN(CCCC)CCCC											1180.4 ± 4 m/s	935.01 ± 2 kg/m3	1157.5 ± 4 m/s	928.458 ± 2 kg/m3	1134.9 ± 4 m/s	921.85 ± 2 kg/m3	1109.2 ± 4 m/s	915.16 ± 2 kg/m3	1089.6 ± 4 m/s	908.49 ± 2 kg/m3	
CCCCCOC(C)=O [pentyl ethanoate]	1243 ± 4.1 m/s	876.248 ± 2 kg/m3	1220.7 ± 4.1 m/s	871.32 ± 2 kg/m3	1196.8 ± 4.1 m/s	865.782 ± 2 kg/m3	1174.2 ± 4.1 m/s	860.581 ± 2 kg/m3	1152.3 ± 4.1 m/s	855.357 ± 2 kg/m3											
CCCOC(C)=O [propyl ethanoate]	1190.3 ± 4.5 m/s	888.964 ± 2.1 kg/m3	1164.2 ± 4.5 m/s	883.369 ± 2.1 kg/m3	1145 ± 4.5 m/s	877.422 ± 2.1 kg/m3	1123.7 ± 4.5 m/s	871.784 ± 2.1 kg/m3	1102.3 ± 4.5 m/s	866.115 ± 2.1 kg/m3											
CCCOC(C)=O [propyl ethanoate] + CCCCN(CCCC)CCCC											1190.3 ± 4.5 m/s	888.964 ± 2.1 kg/m3	1164.2 ± 4.5 m/s	883.369 ± 2.1 kg/m3	1145 ± 4.5 m/s	877.422 ± 2.1 kg/m3	1123.7 ± 4.5 m/s	871.784 ± 2.1 kg/m3	1102.3 ± 4.5 m/s	866.115 ± 2.1 kg/m3	
CCCCN(CCCC)CCCC [tributylamine]	1264.2 ± 4 m/s	777.01 ± 2 kg/m3 and 777.006 ± 2 kg/m3	1245.2 ± 4 m/s	773.283 ± 2 kg/m3 and 773.28 ± 2 kg/m3	1226.2 ± 4 m/s	769.55 ± 2 kg/m3 and 769.552 ± 2 kg/m3	1207.4 ± 4 m/s	765.81 ± 2 kg/m3 and 765.811 ± 2 kg/m3	1188.8 ± 4 m/s	762.06 ± 2 kg/m3 and 762.061 ± 2 kg/m3											
CCCCN(CCCC)CCCC [tributylamine] + CCCCCOC(C)=O																					speed of sound ([2]; 293.15 K, x1 = 1): 1264.2 ± 4 m/s; mass density ([2]; 293.15 K, x1 = 1): 777.006 ± 2 kg/m3; speed of sound ([2]; 298.15 K, x1 = 1): 1245.2 ± 4 m/s; mass density ([2]; 298.15 K, x1 = 1): 773.283 ± 2 kg/m3; speed of sound ([2]; 303.15 K, x1 = 1): 1226.2 ± 4 m/s; mass density ([2]; 303.15 K, x1 = 1): 769.552 ± 2 kg/m3; speed of sound ([2]; 308.15 K, x1 = 1): 1207.4 ± 4 m/s; mass density ([2]; 308.15 K, x1 = 1): 765.811 ± 2 kg/m3; speed of sound ([2]; 313.15 K, x1 = 1): 1188.8 ± 4 m/s; mass density ([2]; 313.15 K, x1 = 1): 762.061 ± 2 kg/m3
